# Biological target: T1, human glycogen phosphorylase a (Homo sapiens, UniProt P06737)
# T1 sequence (P06737 1-847): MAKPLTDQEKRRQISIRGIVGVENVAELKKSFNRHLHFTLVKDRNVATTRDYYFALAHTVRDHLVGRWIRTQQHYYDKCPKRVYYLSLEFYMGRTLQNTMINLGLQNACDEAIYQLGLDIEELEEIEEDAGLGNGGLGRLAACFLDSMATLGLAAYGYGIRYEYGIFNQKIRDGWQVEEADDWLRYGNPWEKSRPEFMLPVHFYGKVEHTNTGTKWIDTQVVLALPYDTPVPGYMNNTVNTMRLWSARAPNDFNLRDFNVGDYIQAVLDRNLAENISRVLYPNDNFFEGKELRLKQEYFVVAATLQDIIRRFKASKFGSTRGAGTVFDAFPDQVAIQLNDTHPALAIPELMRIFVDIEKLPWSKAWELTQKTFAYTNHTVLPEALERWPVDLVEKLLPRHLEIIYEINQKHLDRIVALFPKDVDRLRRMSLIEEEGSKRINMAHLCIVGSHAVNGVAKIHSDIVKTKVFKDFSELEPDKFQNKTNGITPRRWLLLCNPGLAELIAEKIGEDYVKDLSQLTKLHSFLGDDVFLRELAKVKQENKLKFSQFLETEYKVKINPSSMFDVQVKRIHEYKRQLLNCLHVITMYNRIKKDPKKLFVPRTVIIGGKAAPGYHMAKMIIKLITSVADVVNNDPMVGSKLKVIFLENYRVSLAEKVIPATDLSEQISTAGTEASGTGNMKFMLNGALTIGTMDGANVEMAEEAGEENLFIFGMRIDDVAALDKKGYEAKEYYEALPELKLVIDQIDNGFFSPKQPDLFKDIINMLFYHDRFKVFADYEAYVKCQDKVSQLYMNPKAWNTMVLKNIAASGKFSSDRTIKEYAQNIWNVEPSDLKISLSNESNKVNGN
# Test: Glycogen phosphorylase a activity test
# Format: biochemical
# Details: 10 μM test substance; GPa measured in reverse direction (glycogen synthesis from glucose 1-phosphate)
# Description: Glycogen Phophorylase a Activity Test
# The effect of compounds on the activity of the active form of glycogen phosphorylase (GPa) was measured in the reverse direction by monitoring the synthesis of glycogen from glucose 1-phosphate by determining the release of inorganic phosphate. All reactions were carried out as duplicate determinations in 96-well microtiter plates (half area plates, Costar No. 3696), and the change in absorption as a consequence of the formation of the reaction product was measured at the wavelength specified below in a Multiskan Ascent Elisa Reader (Lab Systems, Finland).
# In order to measure the GPa enzyme activity in the reverse direction, the conversion of glucose 1-phosphate to glycogen and inorganic phosphate was measured by the general method of Engers et al. (Engers HD, Shechosky S, Madsen NB, Can J Biochem 1970 July;48(7):746–754) with the following modifications: human glycogen phosphorylase a (for example containing 0.76 mg of protein/ml (Aventis Pharma Deutschland GmbH), dissolved in buffer solution E (25 mM P-glycerophosphate, pH 7.0, 1 mM EDTA and 1 mM dithiotreitol) was diluted to a concentration of 10 μg of protein/ml with buffer T (50 mM Hepes, pH 7.0, 100 mM KCl, 2.5 mM EDTA, 2.5 mM MgCl2.6H2O) and addition of 5 mg/ml of glycogen. Test substances were prepared as a 10 mM solution in DMSO and diluted to 50 μM with buffer solution T. To 10 μl of this solution were added 10 μl of 37.5 mM glucose dissolved in buffer solution T and 5 mg/ml of glycogen, and also 10 μl of a solution of human glycogen phosphorylase a (10 μg of protein/ml) and 20 μl of 2.5 mM glucose 1-phosphate. The base value of the activity of glycogen phosphorylase a in the absence of test substance was determined by adding 10 μl of buffer solution T (0.1% DMSO). The mixture was incubated at room temperature for 40 minutes and the released inorganic phosphate was determined by means of the general method of Drueckes et al. (Drueckes P, Schinzel R, Palm D, Anal Biochem 1995 Sep. 1;230(1):173–177) with the following modifications: 50 μl of a stop solution of 7.3 mM of ammonium molybdate, 10.9 mM of zinc acetate, 3.6% of ascorbic acid, 0.9% of SDS are added to 50 μl of the enzyme mixture. After 60 minutes of incubation at 45° C., the absorption was measured at 820 nm. To determine the background absorption, the stop solution was added immediately after the addition of the glucose 1-phosphate solution in a separate reaction.
Compound,% Inhibition at 10 μM,inhibition at 10 µM [%]
"O=C(O)C(=O)Nc1ccccc1C(=O)O [Comparative Example A, reference compound]",no inhibition,
C#CCCC(=O)Nc1ccc(OC)c(NC(=O)NC(=O)c2cc(F)c(F)cc2Cl)c1 [Example 57],99%,
COc1ccc(NC(=O)CN(C)C)cc1NC(=O)NC(=O)c1cc(F)c(F)cc1Cl [Example 58],99%,
CCOCC(=O)Nc1ccc(OC)c(NC(=O)NC(=O)c2cc(F)c(F)cc2Cl)c1 [Example 59],103%,
C#CCC(=O)Nc1ccc(OC)c(NC(=O)NC(=O)c2cc(F)c(F)cc2Cl)c1 [Example 60],103%,
COc1ccc(NC(=O)C(F)F)cc1NC(=O)NC(=O)c1cc(F)c(F)cc1Cl [Example 61],100%,
COc1ccc(NC(=O)CO)cc1NC(=O)NC(=O)c1cc(F)c(F)cc1Cl [Example 62],101%,
"CC(=O)Nc1ccc(OC(F)(F)F)c(NC(=O)NC(=O)c2cc(F)c(F)cc2Cl)c1 [Example 64, N-{3-[3-(2-Chloro-4,5-difluorobenzoyl)ureido]-4-trifluoromethoxyphenyl}acetamide]",,101
COC(=O)C(=O)Nc1ccc(OC(F)(F)F)c(NC(=O)NC(=O)c2cc(F)c(F)cc2Cl)c1 [Example 65],98%,
COC(=O)CC(=O)Nc1ccc(OC(F)(F)F)c(NC(=O)NC(=O)c2cc(F)c(F)cc2Cl)c1 [Example 66],100%,
COC(=O)CCC(=O)Nc1ccc(OC(F)(F)F)c(NC(=O)NC(=O)c2cc(F)c(F)cc2Cl)c1 [Example 67],101%,
O=C(NC(=O)c1cc(F)c(F)cc1Cl)Nc1cc(NC(=O)C(=O)O)ccc1OC(F)(F)F [Example 68],101%,
O=C(O)CC(=O)Nc1ccc(OC(F)(F)F)c(NC(=O)NC(=O)c2cc(F)c(F)cc2Cl)c1 [Example 69],100%,
O=C(O)CCC(=O)Nc1ccc(OC(F)(F)F)c(NC(=O)NC(=O)c2cc(F)c(F)cc2Cl)c1 [Example 70],99%,
CC(=O)Nc1ccc(N(C)C)c(NC(=O)NC(=O)c2cc(F)c(F)cc2Cl)c1 [Example 71],97%,
CCN(CC)c1ccc(NC(C)=O)cc1NC(=O)NC(=O)c1cc(F)c(F)cc1Cl [Example 72],96%,
"CC(=O)Nc1ccc(N2CCCC2)c(NC(=O)NC(=O)c2cc(F)c(F)cc2Cl)c1 [Example 73, N-{3-[3-(2-Chloro-4,5-difluorobenzoyl)ureido]-4-pyrrolidin-1-ylphenyl}acetamide]",,97
COC(=O)CC(=O)Nc1ccc(N(C)C)c(NC(=O)NC(=O)c2cc(F)c(F)cc2Cl)c1 [Example 74],98%,
COC(=O)CC(=O)Nc1ccc(N2CCCC2)c(NC(=O)NC(=O)c2cc(F)c(F)cc2Cl)c1 [Example 75],100%,
CN(C)c1ccc(NC(=O)CC(=O)O)cc1NC(=O)NC(=O)c1cc(F)c(F)cc1Cl [Example 76],99%,

# Now from value to compound:
% Inhibition at 10 μM,inhibition at 10 µM [%],Compound
98%,,O=C(O)CC(=O)Nc1ccc(N2CCCC2)c(NC(=O)NC(=O)c2cc(F)c(F)cc2Cl)c1 [Example 77]
86%,,O=C(O)CCC(=O)Nc1cccc(NC(=O)NC(=O)c2ccc(Cl)cc2Cl)c1 [Example 78]
80%,,NCCCC(=O)Nc1cccc(NC(=O)NC(=O)c2ccc(Cl)cc2Cl)c1 [Example 79]
98%,,CC(=O)Nc1ccc(Cl)c(NC(=O)NC(=O)c2ccc(Cl)cc2Cl)c1.O=C(O)C(F)(F)F [Example 80]
97%,,O=C(O)CCC(=O)Nc1ccc(Cl)c(NC(=O)NC(=O)c2ccc(Cl)cc2Cl)c1 [Example 81]
102%,,COc1ccc(NC(C)=O)cc1NC(=O)NC(=O)c1ccc(Cl)cc1Cl [Example 82]
103%,,COc1ccc(NC(=O)CCC(=O)O)cc1NC(=O)NC(=O)c1ccc(Cl)cc1Cl [Example 83]
100%,,O=C(O)CCC(=O)Nc1ccc(Cl)c(NC(=O)NC(=O)c2cc(F)c(F)cc2Cl)c1 [Example 84]
98%,,CC(=O)Nc1ccc(Cl)c(NC(=O)NC(=O)c2cc(F)c(F)cc2Cl)c1 [Example 85]
95%,,O=C(O)CC(=O)Nc1ccc(Cl)c(NC(=O)NC(=O)c2cc(F)c(F)cc2Cl)c1 [Example 86]
96%,,COC(=O)C(=O)Nc1ccc(Cl)c(NC(=O)NC(=O)c2cc(F)c(F)cc2Cl)c1 [Example 87]
97%,,O=C(NC(=O)c1cc(F)c(F)cc1Cl)Nc1cc(NC(=O)C(=O)O)ccc1Cl [Example 88]

# Biological target: T1, human glycogen phosphorylase a
# Test: Glycogen phosphorylase a activity test
# Format: biochemical
# Details: read-out: inhibition at a concentration of 100 μM
row,inhibition at 100 µM [%],Compound
1,11,"O=C(O)C(=O)Nc1ccccc1C(=O)O [Comparative Example A, reference compound]"

# — US7179941B2, “Carbonylamino-substituted acyl phenyl urea derivatives, process for their preparation and their use” (Sanofi-Aventis Deutschland GmbH, priority 2003, dated 2007)
